In patent publication US6525056B2, “Heterocyclyl-substituted ring-fused pyridines and pyrimidines as corticotropin releasing hormone (CRH) antagonists, useful for treating cns and stress-related disorders” (Bristol-Myers Squibb Company, priority 1997, dated 2003):

| Compound | melting point [°C] |
| --- | --- |
| Cc1nc(N2CCc3cc(Cl)cc(Cl)c32)c2c(C)nn(Cc3ccccc3)c2n1 [Example 414] | 145 to 146 |
| COCC[C@@H](COC)n1nnc2c(N3CCc4cc(Br)cc(Br)c43)nc(C)cc21 [Example 1, (S)-4-(5,7-Dibromo-2,3-dihydro-1H-indol-1-yl)-1-[1-(methoxymethyl)-3-methoxypropyl]-6-methyl-1H-1,2,3-triazolo[4,5-c]pyridine] | 136 to 138 |
